For the assay, the target named is T1, human PAH with the R408W mutation (Homo sapiens, UniProt P00439, R408W).
T1 construct: expressed in transfected cells
T1 sequence (P00439 1-452 R408W): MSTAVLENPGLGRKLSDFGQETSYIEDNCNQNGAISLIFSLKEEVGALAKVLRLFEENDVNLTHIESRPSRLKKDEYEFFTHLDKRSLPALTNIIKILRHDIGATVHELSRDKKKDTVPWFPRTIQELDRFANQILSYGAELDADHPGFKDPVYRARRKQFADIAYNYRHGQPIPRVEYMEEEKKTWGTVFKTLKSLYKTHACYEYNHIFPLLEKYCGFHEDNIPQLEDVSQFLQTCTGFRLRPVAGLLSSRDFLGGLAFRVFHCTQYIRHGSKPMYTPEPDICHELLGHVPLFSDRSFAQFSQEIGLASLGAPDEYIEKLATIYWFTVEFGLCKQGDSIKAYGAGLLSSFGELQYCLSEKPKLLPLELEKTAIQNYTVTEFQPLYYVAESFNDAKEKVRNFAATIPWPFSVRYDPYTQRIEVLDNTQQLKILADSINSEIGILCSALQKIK
Briefly: Cell Based Phenylalanine Flux Assay.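 Further: after compound treatment, cells received sepiapterin plus isotope-labelled Phenylalanine for 4 hours, then labelled Tyrosine in the medium was quantified, 10-point 2-fold dilution series run in duplicate.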 The conditions noted are these: A375 cells expressing human R408W PAH; 24 hrs compound incubation; 13C-Tyrosine by LC-MS; average where tested multiple times; read-out: AC50.

Drawing on patent publication US20230365592A1 (Agios Pharmaceuticals, Inc., priority 2022, published 2023), this text covers AC50 for 26 compounds.

By AC50 is commonly meant the concentration at which the activity in the assay is half-maximal. With `O=C(CC1(O)CCC1)N1CCc2[nH]cnc2[C@H]1c1cc2ccccn2n1` [Example 634, (S)-2-(1-hydroxycyclobutyl)-1-(4-(pyrazolo[1,5-a]pyridin-2-yl)-6,7-dihydro-1H-imidazo[4,5-c]pyridin-5(4H)-yl)ethanone], the AC50 was under 0.5 µM. For `O=C(CC1(O)CCC1)N1CCc2[nH]cnc2[C@@H]1c1cc2ccccn2n1` [Example 635, (R)-2-(1-hydroxycyclobutyl)-1-(4-(pyrazolo[1,5-a]pyridin-2-yl)-6,7-dihydro-1H-imidazo[4,5-c]pyridin-5(4H)-yl)ethanone] the value was 1 to 5 µM; for `O=C(N1CCc2[nH]cnc2[C@H]1c1cc2ccccn2n1)C(F)(F)C1(O)CCC1` [Example 638, (S)-2,2-difluoro-2-(1-hydroxycyclobutyl)-1-(4-(pyrazolo[1,5-a]pyridin-2-yl)-6,7-dihydro-1H-imidazo[4,5-c]pyridin-5(4H)-yl)ethanone], under 0.5 µM; for `O=C(N1CCc2[nH]cnc2[C@@H]1c1cc2ccccn2n1)C(F)(F)C1(O)CCC1` [Example 639, (R)-2,2-difluoro-2-(1-hydroxycyclobutyl)-1-(4-(pyrazolo[1,5-a]pyridin-2-yl)-6,7-dihydro-1H-imidazo[4,5-c]pyridin-5(4H)-yl)ethanone], 1 to 5 µM. For `O=C(c1nnc(-c2ccc(C(F)(F)F)cc2)o1)N1CCc2[nH]cnc2[C@H]1c1cc2ccccn2n1` [Example 642, (S)-(4-(pyrazolo[1,5-a]pyridin-2-yl)-6,7-dihydro-1H-imidazo[4,5-c]pyridin-5(4H)-yl)(5-(4-(trifluoromethyl)phenyl)-1,3,4-oxadiazol-2-yl)methanone] the value was 0.5 to 1 µM. The figure for `O=C(c1nnc(-c2ccc(C(F)(F)F)cc2)o1)N1CCc2[nH]cnc2[C@@H]1c1cc2ccccn2n1` [Example 643, (R)-(4-(pyrazolo[1,5-a]pyridin-2-yl)-6,7-dihydro-1H-imidazo[4,5-c]pyridin-5(4H)-yl)(5-(4-(trifluoromethyl)phenyl)-1,3,4-oxadiazol-2-yl)methanone] is over 5 µM. Consider `O=C(c1oc(-c2ccccn2)nc1C(F)F)N1CCc2[nH]cnc2[C@H]1c1cc2ccccn2n1` [Example 644, (S)-(4-(difluoromethyl)-2-(pyridin-2-yl)oxazol-5-yl)(4-(pyrazolo[1,5-a]pyridin-2-yl)-6,7-dihydro-1H-imidazo[4,5-c]pyridin-5(4H)-yl)methanone], for which the AC50 is under 0.5 µM. For `O=C(c1oc(-c2ccccn2)nc1C(F)F)N1CCc2[nH]cnc2[C@@H]1c1cc2ccccn2n1` [Example 645, (R)-(4-(difluoromethyl)-2-(pyridin-2-yl)oxazol-5-yl)(4-(pyrazolo[1,5-a]pyridin-2-yl)-6,7-dihydro-1H-imidazo[4,5-c]pyridin-5(4H)-yl)methanone] the value was 1 to 5 µM. The figure for `O=C(c1nnc(-c2cnn(CC(F)(F)F)c2)o1)N1CCc2[nH]cnc2[C@H]1c1cc2ccccn2n1` [Example 646, (S)-(4-(pyrazolo[1,5-a]pyridin-2-yl)-6,7-dihydro-1H-imidazo[4,5-c]pyridin-5(4H)-yl)(5-(1-(2,2,2-trifluoroethyl)-1H-pyrazol-4-yl)-1,3,4-oxadiazol-2-yl)methanone] is 1 to 5 µM; for `O=C(c1nnc(-c2cnn(CC(F)(F)F)c2)o1)N1CCc2[nH]cnc2[C@@H]1c1cc2ccccn2n1` [Example 647, (R)-(4-(pyrazolo[1,5-a]pyridin-2-yl)-6,7-dihydro-1H-imidazo[4,5-c]pyridin-5(4H)-yl)(5-(1-(2,2,2-trifluoroethyl)-1H-pyrazol-4-yl)-1,3,4-oxadiazol-2-yl)methanone] it is over 5 µM; for `O=C(c1nnc(-c2ccc(F)c(F)c2)o1)N1CCc2[nH]cnc2[C@H]1c1cc2ccccn2n1` [Example 648, (S)-(5-(3,4-difluorophenyl)-1,3,4-oxadiazol-2-yl)(4-(pyrazolo[1,5-a]pyridin-2-yl)-6,7-dihydro-1H-imidazo[4,5-c]pyridin-5(4H)-yl)methanone] it is under 0.5 µM. For `O=C(c1nnc(-c2ccc(F)c(F)c2)o1)N1CCc2[nH]cnc2[C@@H]1c1cc2ccccn2n1` [Example 649, (R)-(5-(3,4-difluorophenyl)-1,3,4-oxadiazol-2-yl)(4-(pyrazolo[1,5-a]pyridin-2-yl)-6,7-dihydro-1H-imidazo[4,5-c]pyridin-5(4H)-yl)methanone] the value was over 5 µM; for `O=C(c1nnc(-c2cnn(C(F)F)c2)o1)N1CCc2[nH]cnc2[C@H]1c1cc2ccccn2n1` [Example 650, (S)-(5-(1-(difluoromethyl)-1H-pyrazol-4-yl)-1,3,4-oxadiazol-2-yl)(4-(pyrazolo[1,5-a]pyridin-2-yl)-6,7-dihydro-1H-imidazo[4,5-c]pyridin-5(4H)-yl)methanone], 1 to 5 µM.

On to `O=C(c1nnc(-c2cnn(C(F)F)c2)o1)N1CCc2[nH]cnc2[C@@H]1c1cc2ccccn2n1` [Example 651, (R)-(5-(1-(difluoromethyl)-1H-pyrazol-4-yl)-1,3,4-oxadiazol-2-yl)(4-(pyrazolo[1,5-a]pyridin-2-yl)-6,7-dihydro-1H-imidazo[4,5-c]pyridin-5(4H)-yl)methanone], for which the AC50 is 1 to 5 µM. `O=C(c1nnc(-c2ccc(F)cc2F)o1)N1CCc2[nH]cnc2[C@H]1c1cc2ccccn2n1` [Example 652, (S)-(5-(2,4-difluorophenyl)-1,3,4-oxadiazol-2-yl)(4-(pyrazolo[1,5-a]pyridin-2-yl)-6,7-dihydro-1H-imidazo[4,5-c]pyridin-5(4H)-yl)methanone]: the AC50 was under 0.5 µM. The figure for `O=C(c1nnc(-c2ccc(F)cc2F)o1)N1CCc2[nH]cnc2[C@@H]1c1cc2ccccn2n1` [Example 653, (R)-(5-(2,4-difluorophenyl)-1,3,4-oxadiazol-2-yl)(4-(pyrazolo[1,5-a]pyridin-2-yl)-6,7-dihydro-1H-imidazo[4,5-c]pyridin-5(4H)-yl)methanone] is over 5 µM; for `Cc1cc(F)ccc1-c1nnc(C(=O)N2CCc3[nH]cnc3[C@H]2c2cc3ccccn3n2)o1` [Example 654, (S)-(5-(4-fluoro-2-methylphenyl)-1,3,4-oxadiazol-2-yl)(4-(pyrazolo[1,5-a]pyridin-2-yl)-6,7-dihydro-1H-imidazo[4,5-c]pyridin-5(4H)-yl)methanone] it is under 0.5 µM. Regarding `O=C(c1ccnn1C(F)F)N1CCc2[nH]cnc2[C@H]1c1cc2ccccn2n1` [Example 656, (S)-(1-(difluoromethyl)-1H-pyrazol-5-yl)(4-(pyrazolo[1,5-a]pyridin-2-yl)-6,7-dihydro-1H-imidazo[4,5-c]pyridin-5(4H)-yl)methanone], the AC50 is under 0.5 µM. On to `O=C(c1ccnn1C(F)F)N1CCc2[nH]cnc2[C@@H]1c1cc2ccccn2n1` [Example 657, (R)-(1-(difluoromethyl)-1H-pyrazol-5-yl)(4-(pyrazolo[1,5-a]pyridin-2-yl)-6,7-dihydro-1H-imidazo[4,5-c]pyridin-5(4H)-yl)methanone], for which the AC50 was over 5 µM.

Regarding `Cn1ccc(-c2nnc(C(=O)N3CCc4[nH]cnc4[C@@H]3c3cc4ccccn4n3)o2)n1` [Example 659, (R)-(5-(1-methyl-1H-pyrazol-3-yl)-1,3,4-oxadiazol-2-yl)(4-(pyrazolo[1,5-a]pyridin-2-yl)-6,7-dihydro-1H-imidazo[4,5-c]pyridin-5(4H)-yl)methanone], the AC50 was in the range of 1 to 5 µM. For `Cn1nccc1C(=O)N1CCc2[nH]cnc2[C@H]1c1cc2ccccn2n1` [Example 660, (S)-(1-methyl-1H-pyrazol-5-yl)(4-(pyrazolo[1,5-a]pyridin-2-yl)-6,7-dihydro-1H-imidazo(4,5-c]pyridin-5(4H)-yl)methanone] the value was 0.5 to 1 µM; for `Cn1nccc1C(=O)N1CCc2[nH]cnc2[C@@H]1c1cc2ccccn2n1` [Example 661, (R)-(1-methyl-1H-pyrazol-5-yl)(4-(pyrazolo[1,5-a]pyridin-2-yl)-6,7-dihydro-1H-imidazo[4,5-c]pyridin-5(4H)-yl)methanone], over 5 µM. The figure for `Cn1cc(C(=O)N2CCc3[nH]cnc3[C@H]2c2cc3ccccn3n2)c(C(F)F)n1` [Example 662, (S)-(3-(difluoromethyl)-1-methyl-1H-pyrazol-4-yl)(4-(pyrazolo[1,5-a]pyridin-2-yl)-6,7-dihydro-1H-imidazo[4,5-c]pyridin-5(4H)-yl)methanone] is under 0.5 µM; for `Cn1cc(C(=O)N2CCc3[nH]cnc3[C@@H]2c2cc3ccccn3n2)c(C(F)F)n1` [Example 663, (R)-(3-(difluoromethyl)-1-methyl-1H-pyrazol-4-yl)(4-(pyrazolo[1,5-a]pyridin-2-yl)-6,7-dihydro-1H-imidazo[4,5-c]pyridin-5(4H)-yl)methanone] it is 1 to 5 µM; for `Cn1cc(C(=O)N2CCc3[nH]cnc3[C@@H]2c2cc3ccccn3n2)c(Cl)n1` [Example 664, (R)-(3-chloro-1-methyl-1H-pyrazol-4-yl)(4-(pyrazolo[1,5-a]pyridin-2-yl)-6,7-dihydro-1H-imidazo[4,5-c]pyridin-5(4H)-yl)methanone] it is over 5 µM.

Take `Cn1cc(C(=O)N2CCc3[nH]cnc3[C@H]2c2cc3ccccn3n2)c(Cl)n1` [Example 665, (S)-(3-chloro-1-methyl-1H-pyrazol-4-yl)(4-(pyrazolo[1,5-a]pyridin-2-yl)-6,7-dihydro-1H-imidazo[4,5-c]pyridin-5(4H)-yl)methanone]: the AC50 was under 0.5 µM.
